Test results from patent US4636513A, “Isoxazole derivatives and medicaments containing these compounds” (Hoechst Aktiengesellschaft, priority 1984, dated 1987).
In brackets after ≈: the same amount, converted by molar mass. Like-named read-outs stand apart in the source and are kept apart here.

How the values were obtained:
mice = experiment: Acetic acid extension test on mice (analgesic action); details: Mus musculus, po; for responders at 158 mg/kg: read-out: Animals which showed analgesic effect in % after an oral dose of 158 mg/kg; for ED50: read-out: Analgesic action ED50, acetic acid extension test (Mouse)
Method: (§1) (a) Acetic acid extension test on mice in accordance with the method of R. Koster et al., Fed. Prod.
(§2) Female mice of a N.M.R.I. strain with a body weight (BW) of between 21 and 28 g were used as the experimental animals. Groups of in each case 12 animals received 0.1 ml/10 g BW of a 0.6% strength acetic acid solution, injected intraperitoneally. The test substances were administered 30 minutes beforehand. Immediately after the acetic acid injection, the animals were placed individually and the typical extension movements occurring within 15 minutes were counted, these consisting of brief flexing of the abdominal muscles with withdrawal of the sides and subsequent extension of the rear of the body and of at least one rear extremity.
(§3) The test substances were administered orally in a volume of 10 ml/kg BW in 1% strength aqueous carboxymethylcellulose (CMC) suspension.

[1] = as above; details: mouse, in vivo, po
Method: as §1, §2, §3

[2] = Gastrointestinal ulcerogenicity; assay type: in vivo, rat (male Sprague-Dawley); details: in vivo, po, rat
Method: (§4) In this test on male Sprague-Dawley rats with a body weight of between 200 and 300 g, an increased sensitivity of the gastric mucosa toward the ulcerogenic action of non-steroid antiflammatories was induced by hunger stress (withdrawal of food for a total of 72 hours).
(§5) 48 hours before administration of the test substances, the food was withdrawn from the animals until the end of the experiment, the animals having free access to drinking water.
(§6) 24 hours after oral administration of the product, the animals were sacrificed and the stomachs were removed, cut along the lesser curvature, cleaned under running water and inspected for lesions in the mucous membrane. All the macroscopically visible lesions of the mucosa in the glandular atomach were regarded as ulcers. The proportion of animals with ulcers per dose was determined.
(§7) The test substances were administered as a solution in CMC suspension in a volume of 1 ml/100 g of body weight. The UD50 (dose at which 50% of the animals had ulcers) was determined with the aid of Probit analysis and the confidence range was determined by the method of Fieller.

[3] = test system: prostaglandin synthetases; details: cited from earlier work
[4] = Modified Randall-Selitto hyperalgesia test on rats (analgesic action); details: rat, in vivo, po
Method: (§8) (b) Modified Randall-Selitto hyperalgesia test on rats in accordance with the method of Atkinson et al., J. Pharm. Pharmac.
(§9) Male Sprague-Dawley rats with a body weight of 200 to 300 g were used as the experimental animals. The experimental animals were given a subplantar injection of 0.2 ml of brewer's yeast suspension (40% of yeast in 0.9% strength NaCl solution) into the left hind paw under mild ether anaesthesia. After 5 hours, the gait of the animals over a metal grating was evaluated according to the following scale:
(§10) The evaluation was effected by determining the percentage of animals evaluated with stage 1 or 0.5, two animals given 0.5 being regarded as showing an analgesic effect.
(§11) The test substances were administered orally, to animals which had been fasted for 15 hours, in CMC suspension in a volume of 10 ml/kg BW two hours before the evaluation of the animals. In order to exclude subjective influences, the evaluation was performed by two people independently of one another and without knowledge of the pretreatment of the animals (n=10/dose). The ED50 values were determined with the aid of linear regression in accordance with the method of Fieller and Sidak.

rats [5] = experiment: as above; details: Rattus norvegicus, po, 2 h, read-out: Analgesic action ED50, Randall-Selitto test (Rat)
Method: as §8, §9, §10, §11

in vivo = experiment: in vivo; design: species or system rat (male and female Wistar); details: po, rat, administered orally, read-out: Toxicity LD50
Method: The animals were used in the experiment after being fasted for about 18 hours and only received food again five hours after administration of the product. After a three-week observation period, they were sacrificed with chloroform and autopsied. The organs were assessed macroscopically. The test compounds were dissolved in 1% strength CMC suspension and administered to the rats through a stomach tube in a volume of 5 ml/kg BW.

isolated pig ureter = experiment: Inhibition of potassium chloride-induced spasms on the isolated pig ureter
From the text: In contrast, the compounds of the formula I exert a significant inhibiting action in this experimental design.

gastric mucosa = experiment: Gastrointestinal ulcerogenicity; assay type: in vivo, rat (male Sprague-Dawley); details: doses of up to 400 mg/kg, rat, oral
Method: as §4, §5, §6, §7

rats [6] = experiment: Antipyretic action, yeast fever test on rats; assay type: in vivo, rat (female Sprague-Dawley); details: for Reduction in body temperature at 60 min / Reduction in body temperature at 120 min / Reduction in body temperature at 180 min / Reduction in body temperature at 240 min: rat, orally
Method: The investigations were carried out on female Sprague-Dawley rats with a body weight of 150 g and fed on drinking water ad libitum and a standard diet. […] The body temperature was measured rectally by means of second thermometers at room temperature (24° C.). The number of animals was n=6 per dose. The average reduction in body temperature in comparison with the simultaneous value of the untreated control animals was recorded.

[7] = biliary, gastrointestinal and urogenital tract; cited from earlier work

Q: For `Cc1noc(C)c1C(=O)N1CCCCC1` [3,5-Dimethyl-4-isoxazole-carboxylic acid piperidide, reference compound], which responders at 158 mg/kg (mice) is on record?
A: The responders at 158 mg/kg was 25%.

Q: Which responders at 158 mg/kg (mice) does the source give for `CCN(CC)C(=O)c1cnoc1C` [5-Methyl-4-isoxazolecarboxylic acid N,N--diethylamide, reference compound] here?
A: Its responders at 158 mg/kg is 25%.

Q: With `CC(=O)Oc1ccccc1C(=O)O` [Acetylsalicylic acid, reference compound] as the compound, how does the ED50 (mice) read?
A: The ED50 was 138 mg/kg.

Q: What about the responders at 158 mg/kg (mice) of the same compound?
A: Its responders at 158 mg/kg is 48%.

Q: What about the selectivity ratio [1] of the same compound?
A: The selectivity ratio was 10.9.

Q: What about the TD50 at 24 h ([2]; administered orally, fasted, 24 h after administration, read-out: Ulcerogenicity UD50) of the same compound?
A: The TD50 at 24 h was 31 mg/kg.

Q: And the “Inhibition of peripheral prostaglandin biosynthesis” value [3]?
A: The value was “inhibitor of peripheral prostaglandin biosynthesis”.

Q: What about the selectivity ratio [4] of the same compound?
A: Its selectivity ratio is 8.2.

Q: What about the ED50 (rats [5]) of the same compound?
A: The ED50 was 182 mg/kg.

Q: And the LD50 at 504 h (in vivo)?
A: The LD50 at 504 h was 1500 mg/kg.

Q: Which results are given for `Cc1oncc1C(=O)N1CCCCC1` [Example 1, N-(5-Methyl-4-isoxazolylcarbonyl)-piperidine]?
A: IC50 (isolated pig ureter; Sus scrofa, potassium chloride-induced spasms, read-out: ED50 (inhibition of spasms), concentration): 410 µg/mL (≈ 2110 µM); ED50 (mice): 45 mg/kg; responders at 158 mg/kg (mice): 83%; TD50 at 24 h [2]: > 400 mg/kg; Lesions of the mucous membrane (gastric mucosa): no lesions of the mucous membrane were detected; Reduction in fever in comparison with Paracetamol (rats [6]; 50 mg/kg oral versus Paracetamol 100 mg/kg oral): both more powerful and clearly lasts longer than that of the comparison product Paracetamol; Reduction in body temperature at 60 min (rats [6]; 50 mg/kg): 1.3 °C; Reduction in body temperature at 120 min (rats [6]; 50 mg/kg): 1.6 °C; Reduction in body temperature at 180 min (rats [6]; 50 mg/kg): 1.3 °C; Reduction in body temperature at 240 min (rats [6]; 50 mg/kg): 0.8 °C; Reduction in body temperature at 60 min (rats [6]; 100 mg/kg): 2.0 °C; Reduction in body temperature at 120 min (rats [6]; 100 mg/kg): 2.0 °C; Reduction in body temperature at 180 min (rats [6]; 100 mg/kg): 1.5 °C; Reduction in body temperature at 240 min (rats [6]; 100 mg/kg): 1.1 °C; ED50 (rats [5]): 85 mg/kg

Q: Which responders at 158 mg/kg (mice) does the source give for `CCc1oncc1C(=O)N1CCCCC1` [Example 2, N-(5-Ethyl-4-isoxazolylcarbonyl)-piperidine] here?
A: The responders at 158 mg/kg was 83%.

Q: Which responders at 158 mg/kg (mice) does the source give for `Cc1oncc1C(=O)N1CCCC1` [Example 3, N-(5-Methyl-4-isoxazolylcarbonyl)-pyrrolidine] here?
A: Its responders at 158 mg/kg is 83%.

Q: For `Cc1oncc1C(=O)N1CCC(C)CC1` [Example 4, 4-Methyl-1-(5-methyl-4-isoxazolylcarbonyl)-piperidine], which responders at 158 mg/kg (mice) is on record?
A: The responders at 158 mg/kg was 67%.

Q: For `Cc1oncc1C(=O)N1CCSCC1` [Example 5, N-(5-Methyl-4-isoxazolylcarbonyl)-thiomorpholine], which responders at 158 mg/kg (mice) is on record?
A: The responders at 158 mg/kg was 59%.

Q: For `Cc1oncc1C(=O)N1CCC(O)CC1` [Example 6, 4-Hydroxy-1-(5-methyl-4-isoxazolylcarbonyl)-piperidine], which responders at 158 mg/kg (mice) is on record?
A: The responders at 158 mg/kg was 50%.

Q: For `O=C(c1cnoc1)N1CCCCC1` [Example 7, N-(4-Isoxazolylcarbonyl)-piperidine], which responders at 158 mg/kg (mice) is on record?
A: Its responders at 158 mg/kg is 50%.

Q: With `O=C(c1cnoc1C(F)(F)F)N1CCCCC1` [Example 8, N-(5-Trifluoromethyl-4-isoxazolylcarbonyl)-piperidine] as the compound, how does the responders at 158 mg/kg (mice) read?
A: Its responders at 158 mg/kg is 75%.

Q: With `CCCc1oncc1C(=O)N1CCCCC1` [Example 9, N-(5-Propyl-4-isoxazolylcarbonyl)-piperidine] as the compound, how does the responders at 158 mg/kg (mice) read?
A: The responders at 158 mg/kg was 67%.

Q: Which responders at 158 mg/kg (mice) does the source give for `Cc1oncc1C(=O)N1CCOCC1` [Example 10, N-(5-Methyl-4-isoxazolylcarbonyl)-morpholine] here?
A: The responders at 158 mg/kg was 42%.

Q: With `CC(=O)Nc1ccc(O)cc1` [Paracetamol, reference compound] as the compound, how does the “Inhibiting effect on spasms” value (isolated pig ureter; potassium chloride) read?
A: Its value is “no inhibiting effect on spasms”.

Q: What about the ED50 (mice) of the same compound?
A: The ED50 was 155 mg/kg.

Q: What about the responders at 158 mg/kg (mice) of the same compound?
A: Its responders at 158 mg/kg is 50%.

Q: What about the “Suitability for treating pain of spastic origin” value [7] of the same compound?
A: The value was “unsuitable for treating pain of spastic origin”.

Q: And the TD50 at 24 h [2]?
A: The TD50 at 24 h was > 400 mg/kg.

Q: What about the “Reduction in body temperature at 60 min” value (rats [6]; 100 mg/kg) of the same compound?
A: Its value is 1.3 °C.

Q: And the “Reduction in body temperature at 120 min” value (rats [6]; 100 mg/kg)?
A: Its value is 1.1 °C.

Q: And the “Reduction in body temperature at 180 min” value (rats [6]; 100 mg/kg)?
A: The value was 0.4 °C.

Q: What about the “Reduction in body temperature at 240 min” value (rats [6]; 100 mg/kg) of the same compound?
A: Its value is 0 °C.

Q: And the ED50 (rats [5])?
A: Its ED50 is 334 mg/kg.
